Key:
Format in all cases: nucleic-acid assay, Homo sapiens
Nucleic Acid [1] = assay: Dissociation constant for binding to mitochondrial 12S rRNA construct M1 was determined; NB= No binding
Nucleic Acid [2] = assay: Dissociation constant for binding to mitochondrial 12S rRNA construct M3 was determined
Nucleic Acid [3] = assay: Dissociation constant for binding to mitochondrial 12S rRNA construct M5 was determined
Nucleic Acid [4] = assay: Dissociation constant for binding to mitochondrial 12S rRNA construct M2 was determined
Nucleic Acid [5] = assay: Dissociation constant for binding to mitochondrial 12S rRNA construct M4 was determined

SMILES	Kd (Nucleic Acid [1])	Kd (Nucleic Acid [2]) [µM]	Kd (Nucleic Acid [3]) [µM]	Kd (Nucleic Acid [4]) [µM]	Kd (Nucleic Acid [5]) [µM]
CN(C)c1ccc2c(-c3ccc(C(=O)NCC4O[C@H](O[C@@H]5C(O)[C@H](O[C@@H]6C(O)[C@H](N)CC(N)[C@H]6O[C@H]6OC(CO)[C@@H](O)[C@H](O)C6N)O[C@@H]5CO)[C@H](N)C(O)[C@@H]4O)cc3C(=O)[O-])c3ccc(=[N+](C)C)cc-3oc2c1 (stereo partly specified)	Not Active	0.26	0.33	0.27	0.75
NC[C@@H]1O[C@H](O[C@H]2[C@@H](O)[C@H](O[C@@H]3[C@@H](O)[C@H](N)C[C@H](N)[C@H]3O[C@H]3O[C@H](CN)[C@@H](O)[C@H](O)[C@H]3N)O[C@@H]2CO)[C@H](N)[C@@H](O)[C@@H]1O [FRAMYCETIN]	–	0.12	3.97	0.14	0.16
NC[C@H]1O[C@H](O[C@H]2[C@H](O)[C@@H](O[C@H]3O[C@H](CO)[C@@H](O)[C@H](N)[C@H]3O)[C@H](N)C[C@@H]2N)[C@H](O)[C@@H](O)[C@@H]1O [KANAMYCIN]	–	2.08	2.64	3.46	13.6
NC[C@@H]1O[C@H](O[C@H]2[C@@H](O)[C@H](O[C@@H]3[C@@H](O)[C@H](N)C[C@H](N)[C@H]3O[C@H]3O[C@H](CO)[C@@H](O)[C@H](O)[C@H]3N)O[C@@H]2CO)[C@H](N)[C@@H](O)[C@@H]1O [PAROMOMYCIN]	–	0.44	5.85	3.83	12.6
NC[C@H]1O[C@H](O[C@H]2[C@H](O)[C@@H](O[C@H]3O[C@H](CO)[C@@H](O)[C@H](N)[C@H]3O)[C@H](N)C[C@@H]2N)[C@H](N)C[C@@H]1O [TOBRAMYCIN]	–	0.43	5.37	3.26	2.91
